Assays:
TSH receptor (TSHR) [1] = target: T1, TSH receptor (TSHR) (Homo sapiens, UniProt P16473); assay: cAMP production in HEK293 cells stably expressing TSHR (agonist dose-response); assay type: cell-based
TSH receptor (TSHR) [2] = target: T1, TSH receptor (TSHR); assay: cAMP production in HEK293 cells stably expressing TSHR (agonist dose-response); inactive in HEK-LHR and HEK-FSHR cells; assay type: cell-based

T1 sequence (P16473 21-764): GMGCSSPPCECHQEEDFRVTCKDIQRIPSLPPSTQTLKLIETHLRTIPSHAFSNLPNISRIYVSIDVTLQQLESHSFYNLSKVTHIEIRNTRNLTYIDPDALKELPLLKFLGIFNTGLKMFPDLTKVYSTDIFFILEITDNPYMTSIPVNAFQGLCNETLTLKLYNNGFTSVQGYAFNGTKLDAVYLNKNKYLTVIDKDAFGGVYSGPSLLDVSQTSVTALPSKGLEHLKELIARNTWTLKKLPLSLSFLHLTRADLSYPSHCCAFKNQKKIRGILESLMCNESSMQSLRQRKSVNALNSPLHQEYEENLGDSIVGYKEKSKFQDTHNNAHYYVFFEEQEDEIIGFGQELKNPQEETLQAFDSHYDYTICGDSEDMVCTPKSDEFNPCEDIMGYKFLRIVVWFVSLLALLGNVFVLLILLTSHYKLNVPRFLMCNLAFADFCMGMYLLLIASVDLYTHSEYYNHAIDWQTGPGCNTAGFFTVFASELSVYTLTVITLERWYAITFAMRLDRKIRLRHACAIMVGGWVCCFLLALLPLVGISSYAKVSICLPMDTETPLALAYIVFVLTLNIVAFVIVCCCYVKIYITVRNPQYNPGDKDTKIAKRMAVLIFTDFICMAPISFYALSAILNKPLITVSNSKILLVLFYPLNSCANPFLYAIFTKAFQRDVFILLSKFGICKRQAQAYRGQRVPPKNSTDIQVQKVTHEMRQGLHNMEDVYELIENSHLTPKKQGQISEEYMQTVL

Compound	EC50 (TSH receptor (TSHR) [1]) [nM]	EC50 (TSH receptor (TSHR) [2]) [nM]
COc1ccc(C2Nc3cccc(O)c3C(=O)N2Cc2ccccc2)cc1COc1ccc(NC(C)=O)cc1 (racemic) [C2]	46	–
COc1ccc([C@@H]2Nc3cccc(O)c3C(=O)N2Cc2ccccc2)cc1COc1ccc(NC(C)=O)cc1 [E1]	–	217
COc1ccc([C@H]2Nc3cccc(O)c3C(=O)N2Cc2ccccc2)cc1COc1ccc(NC(C)=O)cc1 [E2]	–	18
